Entries after “also recorded” stand apart in the source; their conditions may differ.
Columns and labels:
[1] = system: P53 STOP (TAA198), P53 STOP (TAG221), P53 STOP (TGA196); assay: Yeast p53 stop codon URA3 reporter suppression on SCgal-ura plates; assay type: cell-based
Experimental: In addition to the APC stop-codon assay, other oncology targets including p53 were analyzed. Here, yeast strains were engineered with PGAL1-P53 STOP (TAA198)-URA3 (EFSC2231 and EFSC2233), PGAL1-P53 STOP (TAG221)-URA3 (EFSC2186 and EFSC2200) and PGAL1-P53 STOP (TGA196)-URA3 (EFSC2232 and EFSC2201) reporter integrated at the PRP5 locus. The strains were tested for suppression with G418 on SCgal-ura plates supplemented with increasing G418 concentrations.

[2] = system: APC premature stop codon C1450X; assay: Yeast APC premature stop codon URA3/ADE2 reporter spot test on plates; assay type: cell-based; settings: 20 ug/ml G418, spot test, 3-5 days at 30° C., Pgal1-APCmut-URA3/ADE2 strain
Excerpt: A nucleic acid sequence containing a nonsense mutation was introduced into a yeast expression construct under the transcriptional control of a promoter e.g., an inducible promoter such as a galactose inducible promoter. The nucleic acid sequence containing the nonsense mutation was fused to a first marker gene such as URA3 and/or ADE2 (or other gene that results in an auxotroph if the gene is not transcribed and translated). The plasmid was integrated into an intergenic region in the genome of a modified yeast strain harboring deletion of ura3 and/or ade2 using conventional LiAc yeast transformation methods. Integrants were selected on media plates containing the antibiotic Hygromycin B or lacking histidine selecting for the marker present on the expression plasmid. Integrated strains were incubated with test compounds and plated on relevant growth media. Suitable test compounds include, for example, libraries of small molecules or expression libraries. […] Production of URA3 allowed the yeast cells to grow and form colonies on media lacking uracil after 2-4 days incubation at 30° C. Production of ADE2 conferred a white coloration of the yeast colonies and allowed the yeast cells to grow and form colonies on media plates lacking adenine after 2-4 days incubation at 30° C. […]
Next, the yeast strains were tested for read-through of the stop codon in the presence of the aminoglycoside G418. […]

[3] = system: APC premature stop codon luciferase reporter; assay: Dual Luciferase Assay, yeast APC premature stop codon Fluc reporter; assay type: cell-based; settings: haploid and diploid strains (EFSC2740), compared to vehicle only (DMSO), triplicate
Experimental: To assess functionality of the Fluc reporter system, a luciferase activity protocol for the Dual Luciferase® Assay kit (Promega) was optimized to be able to test yeast strains in 96-well format. A representative experiment is outlined here. The yeast were incubated for 30° C. overnight. The luciferase assay was performed according to manufacturer's recommended protocol. Briefly, yeast cells were resuspended in SCgal culture media and measured at A600. A 10 uL sample was transferred to a white-opaque-bottom 96-well plate, mixed with 50 uL of passive lysis buffer and incubated at room-temperature for 20-30 minutes with gentle shaking. Next, 50 uL of luciferase assay reagent II and 50 uL of Stop & Glo® reagent were added. The plate was read in a plate reader using a dual luciferase program. The remaining yeast culture was maintained at 30° C. and the luciferase assays was performed daily.
The results of the above Dual Luciferase® Assay experiment are shown in FIG. 4 (samples were tested in triplicate and data was analyzed by GraphPad® with error bars showing mean with 95% confidence interval). Here, 3 different integration sites for the Fluc reporter were analyzed both in a haploid assay strain and in a diploid setting in the presence of aminoglycosides G418 and paromomycin. […]

[4] = system: native stop codons in human genes (V-ATPase, Mdm2, ArhGAP1, DAT and PKCb, and striatin); assay: Yeast URA3 reporter spot test with native stop codons of human genes; assay type: cell-based
Excerpt: In a similar set-up, read-through of 6 native stop codons in human genes (V-ATPase, Mdm2, ArhGAP1, DAT and PKCb, and striatin) was examined in front of the URA3 reporter system. […] A representative spot-test analysis is shown in FIG. 3B, where a strain containing the native stop codon of the human striatin gene was compared with the strain containing the APC premature stop codon mutant.

[5] = system: premature stop codon in APC; assay: Liquid suppression test, strain EFSC2686, APC premature stop codon URA3 reporter; assay type: cell-based, yeast
Experimental: Liquid suppression tests were also conducted with a different aminoglycoside, paromomycin. Read-through of the premature stop codon in APC was also observed after liquid cultivation of the strain in the presence of increasing concentrations of the aminoglycoside paromomycin. Here, strain EFSC2686 was grown in SCgal-ura media in the presence of increasing amounts of drug (0-500 uM) and growth rate was monitored on a daily basis. The presence of ≧250 uM paromomycin supports growth in SCgal media lacking uracil after 4 days incubation (see FIG. 3C).

| Compound | order of suppression response by stop codon ([1]; G418, SCgal-ura plates) | expression of Ura3p, growth on SCgal-ura3 plates ([1]; increasing G418 concentrations, TAA198, TAG221 and TGA196 strains, all cases) | read-through of the APC premature stop codon (growth on SCgal-ura plates) [2] | Firefly luciferase activity [3] | selectivity of suppression, premature versus native stop codons ([4]; 20 ug/ml G418, APC mutant versus 6 native stop codons) | read-through of native stop codons (growth on SCgal-uracil) ([4]; SCgal-uracil + 20 ug/ml G418, 6 native stop codons) | suppression of the APC stop codon, production of URA3 protein ([5]; liquid cultivation, FIG. 3C) | paromomycin concentration that supports growth in SCgal media lacking uracil ([5]; strain EFSC2686, 0-500 uM tested, after 4 days incubation) [µM] |
| --- | --- | --- | --- | --- | --- | --- | --- | --- |
| CN[C@@H]1[C@@H](O)[C@@H](O[C@@H]2[C@@H](O)[C@H](O[C@H]3O[C@H]([C@@H](C)O)[C@@H](O)[C@H](O)[C@H]3N)[C@@H](N)C[C@H]2N)OC[C@]1(C)O [G418] | TGA>TAG>TAA | able to trigger expression of Ura3p | allows translation read-through of the APC gene; also recorded: triggered read-through of the stop codon | able to induce luciferase activity; also recorded: robust and significant Firefly luciferase activity | selective for premature stop codons | no detectable read-through of stop codon was observed | – | – |
| NC[C@@H]1O[C@H](O[C@H]2[C@@H](O)[C@H](O[C@@H]3[C@@H](O)[C@H](N)C[C@H](N)[C@H]3O[C@H]3O[C@H](CO)[C@@H](O)[C@H](O)[C@H]3N)O[C@@H]2CO)[C@H](N)[C@@H](O)[C@@H]1O [paromomycin] | – | – | – | able to induce luciferase activity | – | – | leads to suppression of the APC stop codon and production of URA3 protein | ≥ 250 |

From patent publication US20170306322A1, “METHODS AND MATERIALS FOR IDENTIFYING COMPOUNDS PROMOTING TRA[…]-THROUGH OF NONSENSE MUTATIONS” (Evolva SA, priority 2013, published 2017)
